# Reference: US10473645B2, “Methods for identifying a receptor for a ligand and uses thereof” (UNIVERSITE DE GENEVE, priority 2014, dated 2019)
# What was measured:
# TAAR4 [1] = target: T1, TAAR4 (Mus musculus, UniProt Q5QD15); conditions: Zhang et al, 2013; cited from earlier work
# T1 construct: from tissue; host or cells: main olfactory epithelium of living mice
# TAAR4 [2] = target: T1, TAAR4; test: TAAR transcript level by RT-qPCR after in vivo exposure; conditions: olfactory stimulation during 48 hours
# Experimental: (§1) In vivo exposure to odorant: Starting 48 h before experiments, mice were habituated to pure DMSO on a cotton ball. 200 μl were pipetted directly onto the cotton and placed in the cage, replacing any cotton that was already in the cage for nest-making purposes.
# (§2) On the day of the experiment, mice receiving odorants were transferred to a different room, where they were exposed to a cotton ball on which 200 μl of odorant diluted in pure DMSO were deposited. Exposures started in the morning between 8 and 10 am (that is two hours after lights were on) and mice were killed and dissected between 1 and 3 pm. […] If a number of different odorants were tested in the same experiment, a different overpressurized room would always be used for each odorant to avoid odor cross-contamination.
# (§3) After odorant exposure, mice were killed by cervical dislocation and immediately decapitated. The main olfactory epithelia (MOE), were harvested in their entirety and transferred to a tube containing 600 μl of lysis buffer and β-mercaptoethanol (RNAeasy kit, Qiagen, following the manufacturer protocol) and a 0.5 cm diameter steel ball, and then put on ice. Samples were then homogenized using a FastPrep®-24 instrument (MP Biomedicals) at 6 m/s for 30 s and left on ice. […]
# (§4) RNA concentrations were determined using an Amersham Ultrospec® 3100 Pro spectrophotometer, and RNA quality was evaluated with an Agilent Technologies 2100 Bioanalyzer®. […]
# (§5) qPCR Ct values were analyzed using an in-house developed Microsoft Excel® macro file. […] Ct values were converted to quantities relative to the maximum for each given gene. Selected reference genes were then analyzed for variance using the geNorm algorithm. […]
# (§6) Transcript levels of olfactory receptor gene were evaluated following olfactory stimulation during 48 hours by beta-phenylethylamine. Olfactory receptor gene transcript levels were evaluated by RT-qPCR for each receptor gene, and the ratios between the values obtained in exposed versus control mice are shown in FIG. 6. […]
# TAAR3 [3] = target: T2, TAAR3 (Mus musculus, UniProt Q5QD16); test: as above; conditions: olfactory stimulation during 48 hours
# T2 sequence (Q5QD16 whole entry): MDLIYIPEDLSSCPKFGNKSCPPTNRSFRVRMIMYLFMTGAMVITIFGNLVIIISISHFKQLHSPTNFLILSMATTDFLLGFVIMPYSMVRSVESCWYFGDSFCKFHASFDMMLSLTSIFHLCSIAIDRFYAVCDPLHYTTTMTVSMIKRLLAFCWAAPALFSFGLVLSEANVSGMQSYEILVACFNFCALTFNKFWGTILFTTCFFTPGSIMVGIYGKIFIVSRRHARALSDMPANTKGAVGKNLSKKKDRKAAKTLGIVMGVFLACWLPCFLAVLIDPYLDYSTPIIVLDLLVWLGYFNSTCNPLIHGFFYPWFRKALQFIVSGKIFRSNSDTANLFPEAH
# Experimental: as §1, §2, §3, §4, §5, §6
# TAAR6 = target: T3, TAAR6 (Mus musculus, UniProt Q5QD13); test: as above; conditions: olfactory stimulation during 48 hours
# T3 construct: from tissue; host or cells: main olfactory epithelium of living mice
# T3 sequence (Q5QD13 whole entry): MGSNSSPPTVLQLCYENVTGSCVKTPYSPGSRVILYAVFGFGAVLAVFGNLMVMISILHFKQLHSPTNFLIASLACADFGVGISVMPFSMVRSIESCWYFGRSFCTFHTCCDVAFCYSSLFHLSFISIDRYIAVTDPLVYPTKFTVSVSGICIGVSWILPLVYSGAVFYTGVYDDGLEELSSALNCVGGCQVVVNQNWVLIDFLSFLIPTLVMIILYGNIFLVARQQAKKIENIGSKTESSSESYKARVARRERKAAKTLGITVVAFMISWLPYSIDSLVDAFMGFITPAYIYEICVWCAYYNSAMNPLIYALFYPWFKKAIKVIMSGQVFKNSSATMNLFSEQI
# Experimental: as §1, §2, §3, §4, §5, §6
# Olfr556 = target: T4, Olfr556 (Mus musculus, UniProt B2RRG2); test: OR transcript level by RT-qPCR after in vivo odorant exposure; design: from tissue; host or cells: main olfactory epithelium of exposed mice; conditions: olfactory stimulation during 48 hours, RT-qPCR
# T4 sequence (B2RRG2 1-324): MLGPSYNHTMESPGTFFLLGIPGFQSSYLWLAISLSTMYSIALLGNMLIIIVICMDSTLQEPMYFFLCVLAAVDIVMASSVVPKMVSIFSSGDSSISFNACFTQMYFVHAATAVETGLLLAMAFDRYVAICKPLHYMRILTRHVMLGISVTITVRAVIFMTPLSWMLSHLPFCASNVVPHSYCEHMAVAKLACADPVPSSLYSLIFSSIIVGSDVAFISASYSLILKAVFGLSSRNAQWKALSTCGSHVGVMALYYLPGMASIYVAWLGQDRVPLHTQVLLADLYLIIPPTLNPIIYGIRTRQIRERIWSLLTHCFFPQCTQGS
# Experimental: as §1
# as §2, with “Exposures started in the morning between 8 and 10 am (that is two hours after lights were on) and mice were killed and dissected between 1 and 3 pm.” left out
# After odorant exposure, mice were killed by cervical dislocation and immediately decapitated. The main olfactory epithelia (MOE), were harvested in their entirety and transferred to a tube containing 600 μl of lysis buffer and β-mercaptoethanol (RNAeasy kit, Qiagen, following the manufacturer protocol) and a 0.5 cm diameter steel ball, and then put on ice. Samples were then homogenized using a FastPrep®-24 instrument (MP Biomedicals) at 6 m/s for 30 s and left on ice. RNA extraction was performed on all samples in parallel using the Qiagen RNeasy Mini® kit following the manufacturer's instructions. Two DNase treatments were performed on all samples: first using the Qiagen RNase-Free DNase Set® and then using the Life Technologies Ambion DNase I® kit. RNA samples were then aliquoted and stored at −80° C.
# RNA concentrations were determined using an Amersham Ultrospec® 3100 Pro spectrophotometer, and RNA quality was evaluated with an Agilent Technologies 2100 Bioanalyzer®. Each reverse transcription was performed with 0.5 μg RNA using the Takara Primescript® kit, in a final volume of 10 μl. Primers for reverse transcription were equal mixtures of poly-T nucleotides and random hexamers. Negative controls (omitting the reverse transcriptase enzyme) were performed for each sample. 1/14th of the cDNA preparation was used for each triplicated qPCR reaction.
# qPCR Ct values were analyzed using an in-house developed Microsoft Excel® macro file. Triplicate values were compared and outliers (values with a difference higher than 0.5 Ct to their nearest neighbor) were discarded. The number of conditions with an outlying value was always less than 10% of the total number of conditions. Ct values were converted to quantities relative to the maximum for each given gene. Selected reference genes were then analyzed for variance using the geNorm algorithm. All values were normalized with the olfactory tissue-specific genes Omp and Adcy3. β-Actin was used as a non-tissue-specific reference gene to control for differences in dissection between samples. […]
# TAAR3 [4] = target: T2, TAAR3; conditions: Zhang et al, 2013; cited from earlier work
# Olfr171 [5] = conditions: cited from earlier work
# Olfr167 [6] = target: T5, Olfr167 (Mus musculus, UniProt Q8VGJ5); test: OR transcripts by qPCR after ex vivo exposure of olfactory epithelia; format: cell-based; conditions: 50 μM, 2 hours, olfactory epithelia in vitro in ACSF medium
# T5 construct: from tissue; host or cells: main olfactory epithelium of C57BL/6 mice (in vivo exposure) or explanted mouse olfactory epithelia (ex vivo)
# T5 sequence (Q8VGJ5 1-312): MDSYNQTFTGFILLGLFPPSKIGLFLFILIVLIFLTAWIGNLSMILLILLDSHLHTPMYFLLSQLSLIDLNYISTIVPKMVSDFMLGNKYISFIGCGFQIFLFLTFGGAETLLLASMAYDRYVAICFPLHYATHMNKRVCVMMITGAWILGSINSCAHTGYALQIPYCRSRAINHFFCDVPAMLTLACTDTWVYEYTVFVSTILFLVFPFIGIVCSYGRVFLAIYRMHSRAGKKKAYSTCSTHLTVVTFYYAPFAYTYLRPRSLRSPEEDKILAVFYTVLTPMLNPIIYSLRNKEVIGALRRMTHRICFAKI
# Experimental: (§7) In vitro exposure to odorant: The olfactory sensory mucosa of a live or recently dead vertebrate is collected and maintained alive in vitro. Sensory neurons are either left untouched or are dissociated. The exposure to the odorants is then performed in vitro, in a tube, in the liquid phase. The explants/neurons are kept alive in a physiological medium (such as 145 mM NaCl, 5 mM KCl, 1 mM CaCl2, 1 mM MgCl2, 10 mM HEPES, 10 mM glucose). […] The potential modulations of mRNA levels between the two populations are then evaluated, by qPCR (FIG. 2), RNAseq or other techniques, to identify the receptors that have been activated.
# (§8) Mouse olfactory epithelia were collected and kept in vitro in ACSF medium where they were exposed for 2 hours to 50 μM ethyl isobutyrate. The number of transcripts for Olfr genes was then evaluated by qPCR, and those of Olfr167 and Olfr171 were both repressed after agonist exposure. Ethyl isobutyrate was previously shown to be an agonist for Olfr167 and Olfr171.
# Olfr171 [7] = test: as above; format: cell-based, Mouse; conditions: 50 μM, 2 hours, olfactory epithelia in vitro in ACSF medium
# Experimental: as §7, §8
# Olfr171 [8] = test: OR transcript level by RT-qPCR after in vivo odorant exposure; design: species or system mouse; conditions: 5% odorant for 5 hours, sensory neuroepithelium, n=7 mice
# Experimental: as §1
# (§9) On the day of the experiment, mice receiving odorants were transferred to a different room, where they were exposed to a cotton ball on which 200 μl of odorant diluted in pure DMSO were deposited. Exposures started in the morning between 8 and 10 am (that is two hours after lights were on) and mice were killed and dissected between 1 and 3 pm. […]
# as §4, §5
# (§10) Adult C57BL/6 mice were exposed to 5% ethyl isobutyrate for 5 hours, and the level of transcripts of odorant receptors' genes were measured by RT-qPCR on extracts of olfactory epithelia from these mice, as described in the materials and methods section.
# [9] = test system: control odorant receptor genes (8 genes); test: as above; design: species or system mouse; conditions: 5% odorant for 5 hours; margin of ±20% relative to control mice not significant
# Experimental: as §1, §9, §4, §5, §10
# [10] = test system: Olfr171-expressing neurons; test: pS6 immunolabeling with OR in situ hybridization after odorant exposure; design: species or system mouse; conditions: 5% odorant, 60 minutes, in vivo
# Experimental: (§11) In order to independently validate the identity of an acetophenone receptor obtained with the RNAseq approach, the potential colocalization following acetophenone exposure of a neuronal activity marker (the phosphorylated ribosomal protein S6 (pS6) (Knight et al., 2012, Cell, 151, 1126-1137) and specific olfactory receptors were evaluated. To this aim, in-situ hybridizations were performed on sections of olfactory tissue with probes targeting receptor mRNAs followed by immunolabeling of pS6. The probes used were directed against the transcripts of most of the ORs determined as responsive including Olfr983 transcripts (encoding a known acetophenone receptor), Olfr171 transcripts (encoding a known ethyl isobutyrate receptor), and Olfr145 transcripts, encoding a newly identified receptor by RNAseq. Before analysis, mice were exposed to either 5% acetophenone, 5% ethyl isobutyrate, or a negative control condition for 60 minutes. […] 66% (Olfr983) and 70% (Olfr145) of the neurons were positive for pS6 after acetophenone exposure, while only 11% of the neurons expressing Olfr171 were positive for pS6 after exposure to this compound.
# Olfr167 [11] = target: T5, Olfr167; conditions: cited from earlier work
# [12] = test system: neurons expressing Olfr983; test: pS6 immunolabeling with OR in situ hybridization after odorant exposure; format: in vivo, mouse; conditions: 5% odorant, 60 minutes, in vivo
# Experimental: as §11
# [13] = test system: neurons expressing Olfr145; test: as above; format: in vivo, mouse; conditions: 5% odorant, 60 minutes, in vivo
# Experimental: as §11
# Olfr167 [14] = target: T5, Olfr167; test: OR transcript level by RT-qPCR after in vivo odorant exposure; conditions: 5% odorant for 5 hours, sensory neuroepithelium, n=7 mice
# Experimental: as §1, §9, §4, §5, §10
# Olfr2 [15] = target: T6, Olfr2 (Mus musculus, UniProt Q9QWU6); test: as above; conditions: 5% odorant, 5 hours
# T6 construct: host or cells: HEK cells
# T6 sequence (Q9QWU6 1-327): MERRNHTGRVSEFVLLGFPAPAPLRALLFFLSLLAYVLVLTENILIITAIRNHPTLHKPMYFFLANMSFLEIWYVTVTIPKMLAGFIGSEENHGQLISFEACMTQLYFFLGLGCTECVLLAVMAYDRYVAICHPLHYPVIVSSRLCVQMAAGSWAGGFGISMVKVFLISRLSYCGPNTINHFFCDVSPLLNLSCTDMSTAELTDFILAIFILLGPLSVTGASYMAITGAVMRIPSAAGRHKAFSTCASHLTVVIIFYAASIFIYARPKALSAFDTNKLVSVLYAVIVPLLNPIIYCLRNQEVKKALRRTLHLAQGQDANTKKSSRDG
# Experimental: as §1, §2
# (§12) After odorant exposure, mice were killed by cervical dislocation and immediately decapitated. […]
# as §4, §5
# Olfr2 [16] = target: T6, Olfr2; conditions: HEK cells; previously shown; read-out: EC50 as agonist of Olfr2; cited from earlier work
# Olfr16 [17] = target: T7, Olfr16 (Mus musculus, UniProt Q62007); design: host or cells: dissociated neurons; conditions: dissociated neurons; previously shown; read-out: EC50 as agonist of Olfr16; cited from earlier work
# T7 sequence (Q62007 whole entry): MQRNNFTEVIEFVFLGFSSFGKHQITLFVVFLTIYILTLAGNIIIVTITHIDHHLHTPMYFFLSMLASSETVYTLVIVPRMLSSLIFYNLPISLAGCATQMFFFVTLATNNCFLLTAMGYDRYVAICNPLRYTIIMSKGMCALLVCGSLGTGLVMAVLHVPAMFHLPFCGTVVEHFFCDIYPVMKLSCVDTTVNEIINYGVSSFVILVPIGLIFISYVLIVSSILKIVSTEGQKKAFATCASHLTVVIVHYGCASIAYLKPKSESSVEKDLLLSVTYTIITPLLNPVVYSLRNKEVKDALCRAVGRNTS
# Olfr16 [18] = target: T7, Olfr16; test: OR transcript level by RT-qPCR after in vivo odorant exposure; design: from tissue; host or cells: main olfactory epithelium of exposed mice; conditions: 5% odorant, 5 hours
# Experimental: as §1, §2, §12, §4, §5
# Olfr609 [19] = conditions: HEK cells; previously shown; read-out: EC50 as agonist of Olfr609; cited from earlier work
# Olfr609 [20] = test: OR transcript level by RT-qPCR after in vivo odorant exposure; design: species or system mouse; conditions: 5% odorant, 5 hours
# Experimental: as §1, §2, §12, §4, §5
# T1 sequence (Q5QD15 whole entry): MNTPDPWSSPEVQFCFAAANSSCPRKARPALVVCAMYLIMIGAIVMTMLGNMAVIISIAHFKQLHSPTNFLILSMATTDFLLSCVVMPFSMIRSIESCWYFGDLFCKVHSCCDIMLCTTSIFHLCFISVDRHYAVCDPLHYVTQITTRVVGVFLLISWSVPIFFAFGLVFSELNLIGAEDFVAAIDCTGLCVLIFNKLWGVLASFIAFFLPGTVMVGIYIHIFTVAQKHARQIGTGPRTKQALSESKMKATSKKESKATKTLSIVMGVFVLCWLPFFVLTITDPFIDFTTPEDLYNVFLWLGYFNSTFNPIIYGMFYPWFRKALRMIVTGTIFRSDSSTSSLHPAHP
smiles,measurement,setting,value
NCCc1ccccc1 [beta-phenylethylamine],TAAR4 response previously shown,TAAR4 [1],respond
same,number of transcripts encoding TAAR4,TAAR4 [2],decrease
same,number of transcripts encoding TAAR3,TAAR3 [3],decrease
same,TAAR6 transcript level (negative control),TAAR6,not affected
same,Olfr556 transcript level (negative control),Olfr556,not affected
same,TAAR3 response previously shown,TAAR3 [4],respond
CCOC(=O)C(C)C [ethyl isobutyrate],action on Olfr171 previously shown,Olfr171 [5],agonist
same,number of Olfr167 transcripts after agonist exposure,Olfr167 [6],repressed
same,number of Olfr171 transcripts after agonist exposure,Olfr171 [7],repressed
same,"mRNA concentration of Olfr171, decreased, relative to unexposed controls",Olfr171 [8],74%
same,concentration of control odorant receptor gene transcripts,[9],none of the control odorant receptor genes (8 genes) was significantly affected
same,fraction of Olfr171-expressing neurons positive for pS6,[10],67%
same,action on Olfr167 previously shown,Olfr167 [11],agonist
same,fraction of Olfr983-expressing neurons positive for pS6,[12],12%
same,fraction of Olfr145-expressing neurons positive for pS6,[13],28%
same,"mRNA concentration of Olfr167, decreased, relative to unexposed controls",Olfr167 [14],47%
CCCCCCC=O [heptanal],Olfr2 mRNA level relative to unexposed controls,Olfr2 [15],decrease
same,EC50,Olfr2 [16],< 50 µM
CC(C)(O)CCCC1=CCC(C=O)CC1 (stereo not shown) [lyral],EC50,Olfr16 [17],< 50 µM
same,Olfr16 mRNA level relative to unexposed controls,Olfr16 [18],decrease
COc1cc(C(=O)O)ccc1O [vanillic acid],EC50,Olfr609 [19],< 50 µM
same,Olfr609 mRNA level relative to unexposed controls,Olfr609 [20],decrease
